# In US12649980B2, “Three-dimensional surface for protein and small molecule microarrays” (The Johns Hopkins University, priority 2019, dated 2026):
# How the values were obtained:
# [1] = target: FKBP51 (Homo sapiens, UniProt Q13451); assay: peptidyl prolyl cis-trans isomerase activity inhibition, FKBP51; assay type: biochemical; conditions: inhibition of prolyl isomerase activity
# [2] = tested on: sealed erythrocyte membranes; assay: [3H]-2DG uptake in purified sealed erythrocyte membranes; assay type: cell-based, human; conditions: read-out: IC50 [3H]-2DG uptake into sealed erythrocyte membranes
# Protocol: (§1) To determine which of the 17 rapafucin hits inhibited the transporter activity of GLUT1, an orthogonal glucose uptake assay using 2-deoxy-D-[3H] glucose ([3H]-2DG), a nonhydrolyzable, radioactive glucose analog, was employed. Each hit was separately incubated with A549 cells for 10 min before the amount of [3H]-2DG taken up by the cells was measured using scintillation counting. […] The effect of JW11-D2 on uptake of [3H]-2DG in human red blood cells that exclusively express GLUT1 was then determined. Helgerson and Carruthers, J. Biol. Chem. 1987, 262, 5464-5475. […] To further improve the potency of JW11-D2, a structure-activity relationship (SAR) study was performed by synthesizing 21 new analogs of JW11-D2 using different amino acid building blocks.
# [3] = tested on: HCC1954 xenograft; assay: HCC1954 breast cancer xenograft in nude mice; assay type: in vivo
# Protocol: Given that RgA inhibited multiple isoforms of GLUTs, including GLUT1, 3, and 4, it raised the question of whether animals could tolerate RgA. As breast cancer cell lines are more sensitive to RgA than other cell lines (FIG. 6A and Table 3), the anti-breast cancer activity of RgA in vivo was assessed. Two breast cancer cell lines were selected for the xenograft experiment-MCF-7, an ER+, HER2− line, and HCC1954, an ER−, HER2+ breast line. NSG mice bearing MCF-7 tumors were given daily vehicle or RgA at a dose of 2 mg/kg for […].
# All animal studies were conducted in compliance with all relevant ethical regulations set forth by the Johns Hopkins University Animal Care and Use Committee (ACUC). Female mice aged 4-6 weeks and weighing 18-22 g were maintained in a pathogen-free facility at Johns Hopkins Medical Institutions and cared for according to National Institutes of Health guidelines and under a protocol approved by the Johns Hopkins University Animal Care Committee. For the xenograft experiment of MCF-7, 17β-estradiol pellets (0.72 mg per pellet, 60-day release, Innovative Research of America, FL) were implanted at 5 days prior to tumor cell injection. […] The tumor volume was measured periodically using a Vernier caliper and calculated according to the modified ellipsoid formula: tumor volume (mm^3)=(short axis)^2×(long axis)×π/6. […]
# [4] = target: FKSP13 (Homo sapiens, UniProt P26885); assay: peptidyl prolyl cis-trans isomerase activity inhibition, FKSP13; assay type: biochemical; conditions: inhibition of prolyl isomerase activity
# FKSP13, sequence (P26885 22-142): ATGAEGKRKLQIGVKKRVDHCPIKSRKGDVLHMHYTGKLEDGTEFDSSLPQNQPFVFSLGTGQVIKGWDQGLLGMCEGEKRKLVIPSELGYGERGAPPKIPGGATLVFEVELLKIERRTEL
# [5] = tested on: Jurkat T FKBP knock out cells; assay: [3H]-2DG uptake in Jurkat T FKBP12, FKBP51, FKBP52 knock out cells; assay type: cell-based, human; conditions: Jurkat T FKBP12, FKBP51, FKBP52 KO versus WT
# Protocol: To further determine the dependence of RgA on endogenous FKBP, three major isoforms of FKBP, FKBP12, FKBP51 and FKBP52 were knocked out using CRISPR-Cas9 in Jurkat T cells. Guo et al., Nat. Chem. 2019, 11, 254-263. Unlike ENT1 inhibitor rapacodin, Guo et al., Nat.
# (§2) The inhibitory activity of compounds on glucose transport was analyzed by measuring the cell uptake of [3H]-2DG as previously described. Ulanovskaya et al., Chem. Biol. 2011, 18, 222-230. Briefly, cells were washed twice and incubated in low-glucose medium for 10 min. Cells were added drugs and incubated for another 10 min before adding [3H]-2DG. After 10 min incubation with [3H]-2DG, cells were washed twice and lysed with 0.2 N NaOH plus 0.2% SDS. The cell lysate was transferred to a new tube containing 1 mL of optiphase supermix. Glucose uptake was quantified with a scintillation counter.
# [6] = tested on: p53 and p21; assay: Western blot of p53 and p21 in MCF-7 cells; assay type: cell-based, human; conditions: MCF-7, 24-h treatment, dose-dependent
# Protocol: (§3) The effects of RgA on cell growth, survival, and cell death was then determined. […] Treatment with 5 μM of RgA caused an increase in G1 phase by approximately 23% in comparison to control and approximately 7% and 17% decreases in cells in S and G2/M phases, respectively. The induction in G1 phase cell cycle arrest by RgA is dose-dependent (FIG. 5A, FIG. 16). […] Jones and Thompson, Genes Dev. 2009, 23, 537-548. […] The IC50 values of RgA against several human cancer cell lines also was determined using the alamar blue cell proliferation assay.
# For western blot analysis, cells were harvested and lysed by RIPA buffer plus protease inhibitor. Cell lysates or samples from pull-down experiment were subjected to SDS/PAGE and then transferred to a nitrocellulose membrane. Membranes were first blocked in 5% (wt/vol) BSA in Tris-buffered saline plus 0.1% Tween 20 (TBST) at room temperature for 30 min and incubated with primary antibodies at 4° C. for overnight. Membranes were then washed three times with TBST and incubated with secondary antibodies at room temperature for another 1 h. Membranes were washed with TBST three times again and incubated with ECL substrate for 1 min at room temperature. Pictures were captured using a GeneSys Image Station.
# [7] = tested on: human red blood cells; assay: [3H]-2DG uptake in human red blood cells; assay type: cell-based; conditions: human red blood cells that exclusively express GLUT1; read-out: IC50 [3H]-2DG uptake into red blood cells
# Protocol: as §1, §2
# [8] = tested on: HCC1954; assay: Alamar blue cell proliferation assay, HCC1954; assay type: cell-based, human; conditions: HCC1954, 72 h; read-out: IC50 Assay B (Alamar blue cell proliferation)
# Protocol: as §3
# Cells were seeded into a 96-well plate (Costar) in 180 μL culture media. After an overnight recovery, drugs were added and incubated for 72 h. After drug incubation, cells were added with 20 μL of alamar blue reagent and the plates were incubated at 37° C. for 6 h before reading the fluorescence (544 nm Ex/590 nm Em) with a plate reader. GraphPad Prism (v4.03) software was used to determine IC50 values using a four parameter logistic regression.
# [9] = tested on: RKO; assay: [3H]-2DG uptake assay in RKO cells; assay type: cell-based, human
# Protocol: Hay, Nat. Rev. […] To determine whether RgA could inhibit glucose uptake in cancer cell lines in addition to A549, the impact of RgA on [3H]-2DG uptake in six other cancer cell lines, including HCC1954, MCF-7, PANC10.05, Jurkat T, HeLa, and RKO was measured (FIG. 3A, Table 3).
# as §2
# FKBP51, sequence (Q13451 whole entry): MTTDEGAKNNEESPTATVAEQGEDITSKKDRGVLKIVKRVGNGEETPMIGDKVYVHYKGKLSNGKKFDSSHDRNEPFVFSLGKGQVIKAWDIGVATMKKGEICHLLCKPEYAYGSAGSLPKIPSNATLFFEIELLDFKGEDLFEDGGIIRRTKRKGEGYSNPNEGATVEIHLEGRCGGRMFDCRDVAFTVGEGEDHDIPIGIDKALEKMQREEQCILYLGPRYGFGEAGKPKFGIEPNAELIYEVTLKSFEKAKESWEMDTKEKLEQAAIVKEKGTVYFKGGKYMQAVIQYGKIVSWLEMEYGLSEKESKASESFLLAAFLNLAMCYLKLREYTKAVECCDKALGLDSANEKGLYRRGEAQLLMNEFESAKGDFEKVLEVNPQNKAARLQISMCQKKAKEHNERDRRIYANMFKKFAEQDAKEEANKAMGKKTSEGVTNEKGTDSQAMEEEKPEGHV
smiles,measurement,setting,value
"CCC(C)C1C(=O)NCC(=O)N(C)CCC=CC(=O)OCC(C)(C)C(=O)C(=O)N2CCCCC2C(=O)OC(CCc2ccc(OC)c(OC)c2)c2cccc(c2)NC(=O)CCC(=O)N(C)C(CC(C)C)C(=O)NC(Cc2ccccc2)C(=O)N1C (stereo not shown) [JW11-D2, Rapaglutin A]",Ki,[1],46 ± 10 nM
same,IC50,[2],49.5 nM
same,tumor volume index on day 38,"[3]; HCC1954 in nude mice, 2 mg/kg intraperitoneally daily, vehicle 26.14",12.97
same,weight loss and signs of adverse effects,"[3]; HCC1954 xenograft mice, 2 mg/kg daily",no significant weight loss or any signs of adverse effects
same,Ki,[4],539 ± 207 nM
same,effect of knockout of three FKBP isoforms on sensitivity of cells,[5],negligible effects
same,p53 and p21 activation,[6],activation of both p53 and p21
same,IC50,[7],34.2 nM
same,IC50,[8],109 nM
same,IC50,[9],10.8 nM
